Experimental data as given in patent US20240024293A1, “NOMETHIAZOLES AS A TREATMENT FOR RETT SYNDROME” (REVIVO THERAPEUTICS, priority 2019, published 2024).
Counter-ions that a name gives are not always drawn.

Experiments:
Mecp2 female mice (HET) [1] = assay: Acoustic startle response in RETT mouse model; format: in vivo; conditions: HET mice at 8 weeks of age; all doses tested (1.35 or 13.5 mg/kg ip QD + 0.675 mg/ml in drinking water); FIG. 2
Method: (§1) Experiments employed wild type (WT) mice and Mecp2 female mice (HET) that were provided by The Jackson Laboratory, Bar Harbor, ME.
(§2) Breeding of the experimental mice were done at The Jackson Laboratories and were shipped at approximately 5 weeks of age. Dosing experiments were conducted at approximately 6 weeks of age.
(§3) Treatment Groups (N=20) were as follow: • WT—Vehicle • HET—Vehicle • HET—RIV-0561 (1.35 mg/kg; ip QD)+0.675 mg/ml of RIV-0561 in drinking water • HET—RIV-0561 (13.5 mg/kg; ip QD)+0.675 mg/ml of RIV-0561 in drinking water
(§4) NeuroCube® and Startle experiments were conducted when mice were at 8 and 12 weeks of age. All tests were conducted within 2 hours post IP dosing.
The acoustic startle measures an unconditioned reflex response to external auditory stimulation. Mice were placed in the startle enclosures and secured in the sound-attenuated startle chamber (Med Associates Inc., St Albans, VT) on top of a force transducer plate that measures the force of the movements made by the mouse for a 5 min habituation period of white noise (70 dB). Subsequent test sessions consisted of 10 blocks of eleven trials each. Within each block, stimuli of 70, 75, 80, 85, 90, 95, 100, 105, 110, 115, and 120 dB were presented in a random order with a variable inter-trial interval of mean 15 sec (10-20 sec). […] Responses were recorded for 150 ms from startle onset and were sampled every ms. […]

Mecp2 female mice (HET) [2] = assay: NeuroCube gait analysis in RETT mouse model; format: in vivo
Method: as §1, §2, §3, §4
NeuroCube® system is a proprietary gait analysis system. The platform employs computer vision to detect changes in gait geometry and gait dynamics in rodent models of neurological disorders, pain, and neuropathies. This platform is unique for gait testing for the following reasons: (1) it is completely automated and thus removes any bias or subjectivity; (2) the system captures both gait geometry and gait dynamics (stance, swing, propulsion, etc.); and (3) the sensitivity of the computer vision and bioinformatics allow the capture of symptoms of the disease model earlier and more accurately.
Mice are placed in the NeuroCube® for a 5-min test. The most dominant features that define the disease phenotype (symptom descriptors) are identified and ranked. Complex bioinformatics algorithms are employed to calculate the discrimination probability between WT and HET mice and can thus detect a test compound's ability to reverse the disease phenotype.

[3] = Gait features at 12 weeks, HET mice, dose not given

Question: `Cc1ncsc1CCO[N+](=O)[O-]` [RIV-5061, 2-(4-methylthiazol-5-yl)ethyl nitrate maleate] was tested. Which Startle response (Mecp2 female mice (HET) [1]) did it give?
Answer: The Startle response was “tendency to improve startle response”.

Question: And the “% Recovery, Body Motion” value (Mecp2 female mice (HET) [2]; [3])?
Answer: Its value is 19%.

Question: What about the “% Recovery, Gait Dynamic and Geometry” value (Mecp2 female mice (HET) [2]; [3]) of the same compound?
Answer: Its value is 53%.

Question: And the “% Recovery, Overall Gait” value (Mecp2 female mice (HET) [2]; [3])?
Answer: Its value is 24%.

Question: And the “% Recovery, Paw Features” value (Mecp2 female mice (HET) [2]; [3])?
Answer: Its value is 63%.

Question: And the “% Recovery, Paw Positioning” value (Mecp2 female mice (HET) [2]; [3])?
Answer: Its value is 17%.

Question: What about the “% Recovery, Rhythmicity” value (Mecp2 female mice (HET) [2]; [3]) of the same compound?
Answer: The value was 0%.

Question: What about the “Improvement of important gait features (up to)” value (Mecp2 female mice (HET) [2]; RETT mice, after 12 weeks of treatment, particularly at the lower dose (1.35 mg/kg IP daily + 0.675 mg/ml in drinking water)) of the same compound?
Answer: Its value is over 60%.
